Results on 2 compounds are retold here after patent US20120028278A1, “CELL LINES EXPRESSING GUANYLATE CYCLASE-C AND METHODS OF USING THEM” (CHROMOCELL CORPORATION, priority 2009, published 2012).

Test [1] concerns the target T1, human GC-C (Homo sapiens, UniProt P25092, F281L).
T1 construct: expressed in transfected cells; CMV promoter
The test is described as follows: competitive ELISA for detection of cGMP in the produced GC-C-expressing cell line. Format: cell-based. To be noted: 100 nM guanylin; cell lysate from GC-C-expressing cell line; FIG. 1. Here is the method: A competitive ELISA for detection of cGMP was used to characterize native GC-C function in the produced GC-C-expressing cell line. Cells expressing GC-C were maintained under standard cell culture conditions in DMEM supplemented with 10% fetal bovine serum, glutamine and HEPES and grown in T175 cm flasks. For the ELISA, the cells were plated into coated 96-well plates (poly-D-lysine).
(§1) Cells were washed twice with serum-free medium and incubated with 1 mM IBMX for 30 minutes. Desired activators (i.e., guanylin, 0.001-40 μM) were then added to the cells and incubated for 30-40 minutes. Supernatant was removed, and the cells were washed with TBS buffer. […]. This was followed by lysis with 0.1N HCl and a freeze/thaw cycle at −20° C./room temperature. Defrosted lysates (samples were spun in Eppendorf tubes at 10,000 rpm) were centrifuged to pellet cell debris. The cleared supernatant lysate was then transferred to ELISA plates.
All of the following steps were performed at room temperature, unless otherwise indicated. ELISA plates were coated with anti-IgG antibodies in coating buffer (Na-carbonate/bi-carbonate buffer, 0.1 M final, pH 9.6) overnight at 4° C. […] The absorbance was then read at 405 nm on a SAFIRE^2™ plate reader (Tecan).
Maximum absorbance was seen when no cell lysate was used in the ELISA (Control).

The subject of test [2] is other cell lines. As to conditions: low concentrations of guanylin, Forte et al., Endocr. 140(4):1800-1806 (1999); cited from earlier work.
For test [3], the target named is T1, human GC-C. In words: Direct Cyclic GMP Enzyme Immunoassay Kit, cGMP in the produced GC-C-expressing cell line (guanylin dose-response and comparison with parental cells). The test is classed as cell-based. As for the experimental part:
Populations of cells were tested using functional criteria. The Direct Cyclic GMP Enzyme Immunoassay Kit (Cat. 900-014; AssayDesigns, Inc.) was used according to manufacturer's instructions: (http://www.assaydesigns.com/objects/catalog//product/extras/900-014.pdf). Cells were tested at 4 different densities in 96- or 384-well plates and responses were analyzed. The following conditions were used for the GC-C-expressing cell lines of the invention:
as §1
The cGMP level in the produced GC-C-expressing cell line treated with 100 nM guanylin was also compared to that of parental cell line control samples not expressing GC-C (not shown) using the Direct Cyclic GMP Enzyme Immunoassay Kit (Cat. 900-014; AssayDesigns, Inc.).
For guanylin dose-response experiments, cells of the produced GC-C-expressing cell line, plated at densities of 20,000, 40,000, 60,000, 80,000, 120,000 and 160,000 cells/well in a 96-well plate, were challenged with increasing concentration of guanylin for 30 minutes (see FIG. 2). […] 140(4):1800-1806 (1999)), indicating the potency of the clone.

Test [4] deals with human guanylate cyclase-C (GC-C) (human) (UniProt P25092). In words: cell-based or functional assay.
Sequence of human guanylate cyclase-C (GC-C) (human) (P25092 24-1073 F281L limits assumed): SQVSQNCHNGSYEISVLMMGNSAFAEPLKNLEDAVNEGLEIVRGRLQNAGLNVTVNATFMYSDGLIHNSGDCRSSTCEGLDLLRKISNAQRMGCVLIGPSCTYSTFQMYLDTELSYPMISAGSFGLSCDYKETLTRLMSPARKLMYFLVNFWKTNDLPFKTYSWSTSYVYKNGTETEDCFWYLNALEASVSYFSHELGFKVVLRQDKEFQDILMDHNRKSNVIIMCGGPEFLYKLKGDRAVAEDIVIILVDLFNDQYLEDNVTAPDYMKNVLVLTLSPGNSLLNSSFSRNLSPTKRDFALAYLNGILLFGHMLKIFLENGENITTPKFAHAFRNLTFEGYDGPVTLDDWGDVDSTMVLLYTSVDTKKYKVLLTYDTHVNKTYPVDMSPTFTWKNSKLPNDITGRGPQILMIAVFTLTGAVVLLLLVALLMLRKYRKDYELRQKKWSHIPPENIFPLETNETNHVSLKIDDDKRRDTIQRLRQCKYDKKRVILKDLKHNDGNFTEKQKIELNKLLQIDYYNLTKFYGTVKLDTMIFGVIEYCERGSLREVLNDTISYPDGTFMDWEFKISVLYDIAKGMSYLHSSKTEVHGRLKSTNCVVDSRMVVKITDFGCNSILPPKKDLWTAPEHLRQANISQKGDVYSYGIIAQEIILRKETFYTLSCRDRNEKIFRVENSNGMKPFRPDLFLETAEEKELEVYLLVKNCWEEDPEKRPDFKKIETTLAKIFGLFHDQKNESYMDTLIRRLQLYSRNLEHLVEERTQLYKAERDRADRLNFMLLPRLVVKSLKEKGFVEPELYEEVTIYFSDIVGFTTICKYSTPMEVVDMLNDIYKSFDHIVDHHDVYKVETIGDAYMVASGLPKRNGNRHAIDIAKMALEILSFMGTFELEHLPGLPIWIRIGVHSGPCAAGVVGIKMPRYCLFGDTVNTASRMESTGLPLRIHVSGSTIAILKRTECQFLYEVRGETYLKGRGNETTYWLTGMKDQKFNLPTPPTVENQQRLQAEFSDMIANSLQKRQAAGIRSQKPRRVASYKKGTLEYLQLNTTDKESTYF

Where a SMILES comes first, the peptide text is derived from it. Bridges are numbered along the chain shown (N, C = ends).

T1 sequence (P25092 24-1073 F281L): as the sequence (P25092 24-1073 F281L limits assumed) above

In the case of `CC[C@H](C)[C@@H]1NC(=O)[C@H](CCC(=O)O)NC(=O)[C@@H](NC(=O)[C@@H](NC(=O)CNC(=O)[C@@H]2CCCN2)[C@@H](C)O)CSSC[C@@H]2NC(=O)[C@H](C)NC(=O)[C@H](C)NC(=O)[C@H](Cc3ccc(O)cc3)NC(=O)[C@H](C)NC(=O)[C@H](CSSC[C@@H](C(=O)O)NC(=O)CNC(=O)[C@H]([C@@H](C)O)NC2=O)NC1=O` [guanylin] (H-PGTCEICAYAACTGC-OH; disulfide 4-12, 7-15 (inferred); N-terminus and C-terminus assumed), in test [1], the “absorbance (corresponding to cGMP levels) vs control without cell lysate” value is on record as “Reduction in absorbance”. In addition, the “level of cGMP previously reported” value in test [2] was 3.5 pmol/mL. The “absorbance (corresponding to cGMP levels) vs parental cells not expressing GC-C” value in test [3] (100 nM guanylin, compared with parental cells treated and untreated with guanylin) is “greater reduction in absorbance”. For the same compound, the EC50 in test [3] (produced GC-C-expressing 293T cell line, guanylin 30 minutes, non-linear regression, GraphPad Prism 5.0) is approximately 1.1 nM. The “level of cGMP” value in test [3] (produced GC-C-expressing cell line treated with low concentrations of guanylin) turned out to be 6 pmol/mL.

As for guanylin (peptide), in test [4], the EC50 of guanylin dose-response, cellular cGMP level (absorbance, Direct Cyclic GMP Enzyme Immunoassay Kit) is 1.1 nM and the level of cGMP in the GC-C-expressing cell line treated with low concentrations of guanylin was 6 pmol/mL.
